Series [1] is described as follows: HPLC/MS measurement of inhibitor concentration in urine after subcutaneous administration. The conditions noted are these: 4 times daily for 3 days, 5 mg/kg/day; for concentration at 1 h: 1 hour after final dosing; for concentration at 5 h: 5 hour after final dosing. The format is in vivo, mouse. The procedure: CFTR inhibitors (5-10 mg/kg/day) or saline DMSO vehicle control (0.05 mL/injection) were administrated by subcutaneous injection on the backs of neonatal mice four times a day for 3 or 7 days using a 1 cc insulin syringe, beginning at age 2 days (11 mice per group). Pkd1^flox/+; Ksp-Cre or Pkd1^flox/+ mice from the same litter were used as controls. During the treatment period, control and Pkd1^flox/−; Ksp-Cre mice, with or without CFTR inhibitor treatment, were indistinguishable in their activity and behavior. Body weight was measured at day 5 (3 days after treatment), at which time there was no difference in body weight in any of the mouse groups. Blood and urine samples were collected for measurements of CFTR inhibitor concentration and renal function. Kidneys were removed and weighed, and fixed for histological examination or homogenized for determination of CFTR inhibitor content.
For high-performance liquid chromatography/mass spectrometry (HPLC/MS) analysis of CFTR inhibitor concentration, kidneys were homogenized in 50-100 μl of PBS for 5 min using an EPPENDORF pellet pestle homogenizer. The homogenate was mixed with an equal volume of chilled acetonitrile to precipitate proteins. After centrifugation at 5000×g for 10 min the supernatant was evaporated under nitrogen, and the residue was dissolved in eluent (50% CH3CN/20 mM NH4OAc). Urine samples were directly diluted 10-fold with eluent. Reversed-phase HPLC separations were carried out using a WATERS C18 column (2.1×100 mm, 2.5 μm particle size) equipped with a solvent delivery system (WATERS model 2690, Milford, Mass.). The solvent system consisted of a linear gradient from 20% CH3CN/20 mM NH4OAc to 95% CH3CN/20 mM NH4OAc, run over 20 min, followed by 5 min at 95% CH3CN/20 mM NH4OAc (0.2 mL/min flow rate). Mass spectra were acquired on an Alliance HT 2790+ZQ mass spectrometer using negative ion detection, scanning from 150 to 1500 Da. The electrospray ion source parameters were: capillary voltage 3.2 kV (negative ion mode) or 3.5 kV (positive ion mode), cone voltage 37 V, source temperature 120° C., desolvation temperature 250° C., cone gas flow 25 L/h, and dessolvation gas flow 350 L/h.
Concentrations were measured to establish dosing to give sustained concentrations in kidney/urine of >1 μM, where CFTR is inhibited. Kidney and urine samples were obtained from mice after 4 times daily subcutaneous administration for 3 days at 5 mg/kg/day, a dose regimen determined from preliminary studies. Urinary concentrations were measured at 1 and 5 hour after the final dosing. For tetrazolo-CFTRinh-172, urine concentrations were 3.3 and 3.6 μM at 1 and 5 hour, respectively. The urine concentrations of Ph-GlyH-101 were 4.3 and 5.8 μM. […] These concentrations are several-fold greater than the IC50 for CFTR inhibition.

Series [2] addresses human wildtype CFTR (Homo sapiens, UniProt P13569). The experiment in a line: Short-circuit current measurements, apical chloride current in FRT cells. More on the design: expressed in transfected cells; host or cells: FRT (Fisher rat thyroid) cells. It counts as cell-based.
Experimental: Short-circuit current measurements. FRT cells (stably expressing human wildtype CFTR) were cultured on [sequence] filters with 1 cm^2 surface area (Corning-Costar) to resistance >1,000 Ω·cm^2 as described (see, e.g., Ma et al., J. Clin. Invest. 110:1651-1658 ((2002)); Sonawane et al., FASEB J. 20:130-132 (2006)). Filters were mounted in an Easymount Chamber System (Physiologic Instruments, San Diego). For apical current measurements, the basolateral hemichamber contained (in mM): 130 NaCl, 2.7 KCl, 1.5 KH2PO4, 1 CaCl2, 0.5 MgCl2, 10 Na-HEPES, 10 glucose (pH 7.3). The basolateral membrane was permeabilized with amphotericin B (250 μg/ml) for 30 min. In the apical solution 65 mM NaCl was replaced by sodium gluconate, and CaCl2 was increased to 2 mM. Solutions were bubbled with 95% O2/5% CO2 and maintained at 37° C. Current was recorded using a DVC-1000 voltage-clamp (World Precision Instruments) using Ag/AgCl electrodes and 1 M KCl agar bridges.
CFTR was stimulated by cAMP agonist forskolin and increasing concentration of test compounds was added.
The target in series [3] is T1, CFTR (Canis lupus familiaris, UniProt Q5U820).
T1 construct: MDCK cells, which endogenously express CFTR; endogenous in cells; host or cells: MDCK cells
T1 sequence (Q5U820 whole entry): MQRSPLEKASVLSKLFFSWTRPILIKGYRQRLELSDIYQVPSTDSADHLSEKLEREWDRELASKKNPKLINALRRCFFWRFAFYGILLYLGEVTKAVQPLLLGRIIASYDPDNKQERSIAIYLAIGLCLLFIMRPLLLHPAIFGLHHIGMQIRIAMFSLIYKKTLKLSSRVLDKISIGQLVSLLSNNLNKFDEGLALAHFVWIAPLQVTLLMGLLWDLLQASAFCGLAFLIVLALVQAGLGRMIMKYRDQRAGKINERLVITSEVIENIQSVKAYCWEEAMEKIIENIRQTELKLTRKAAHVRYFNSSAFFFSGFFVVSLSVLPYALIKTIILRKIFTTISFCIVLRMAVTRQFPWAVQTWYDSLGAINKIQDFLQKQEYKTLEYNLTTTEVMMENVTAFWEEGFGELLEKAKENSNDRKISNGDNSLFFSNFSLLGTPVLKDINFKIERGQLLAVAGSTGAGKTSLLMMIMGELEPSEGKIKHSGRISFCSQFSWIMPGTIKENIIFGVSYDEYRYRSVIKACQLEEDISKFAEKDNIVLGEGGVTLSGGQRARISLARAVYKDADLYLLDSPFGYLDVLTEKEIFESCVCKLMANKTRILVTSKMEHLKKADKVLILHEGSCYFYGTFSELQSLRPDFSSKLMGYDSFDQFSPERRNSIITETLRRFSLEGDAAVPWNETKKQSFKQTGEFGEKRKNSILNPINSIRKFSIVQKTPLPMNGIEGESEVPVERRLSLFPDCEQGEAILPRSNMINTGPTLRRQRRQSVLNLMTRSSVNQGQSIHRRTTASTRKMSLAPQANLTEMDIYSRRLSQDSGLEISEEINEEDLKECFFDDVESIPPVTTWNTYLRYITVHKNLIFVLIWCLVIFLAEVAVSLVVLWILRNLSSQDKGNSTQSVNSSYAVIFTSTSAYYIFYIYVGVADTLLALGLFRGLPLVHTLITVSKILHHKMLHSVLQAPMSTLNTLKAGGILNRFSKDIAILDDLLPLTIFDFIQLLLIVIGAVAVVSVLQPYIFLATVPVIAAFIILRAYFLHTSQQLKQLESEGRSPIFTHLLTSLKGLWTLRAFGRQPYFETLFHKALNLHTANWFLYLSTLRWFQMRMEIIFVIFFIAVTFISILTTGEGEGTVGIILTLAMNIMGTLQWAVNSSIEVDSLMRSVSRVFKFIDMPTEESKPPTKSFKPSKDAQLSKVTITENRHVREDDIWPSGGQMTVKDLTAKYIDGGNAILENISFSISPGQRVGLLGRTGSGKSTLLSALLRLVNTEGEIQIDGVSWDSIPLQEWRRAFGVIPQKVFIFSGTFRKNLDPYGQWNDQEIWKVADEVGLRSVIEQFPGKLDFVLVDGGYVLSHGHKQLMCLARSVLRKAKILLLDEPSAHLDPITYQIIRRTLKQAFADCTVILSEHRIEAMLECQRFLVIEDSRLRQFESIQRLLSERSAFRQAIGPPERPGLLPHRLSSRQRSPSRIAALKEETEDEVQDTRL
The experiment in a line: Short-circuit current measurements in MDCK cells. To be noted: for IC50: after CFTR stimulation by forskolin, read-out: IC50, inhibition of short-circuit current in MDCK cells; for CFTR expression, short-circuit current after incubation (in words): 10 μM, 1 or 48 hour incubation, washout 1 hour. The format is cell-based, Canine. The method, then:
CFTR inhibition potency was confirmed in MDCK cells by short-circuit current analysis. Snapwell inserts containing MDCK cells (transepithelial resistance 1000-2000 Ohms) were mounted in a standard Using chamber system. The basolateral membrane was permeabilized with 250 μg/ml amphotericin B. The hemichambers were filled with 5 mL of 65 mM NaCl, 65 mM Na-gluconate, 2.7 mM KCl, 1.5 mM KH2PO4, 1 mM CaCl2, 0.5 mM MgCl2, Na-Hepes and 10 mM glucose (apical), and 130 mM NaCl, 2.7 mM KCl, 1.5 mM KH2PO4, 1 mM CaCl2, 0.5 mM MgCl2, Na-Hepes and 10 mM glucose (basolateral) (pH 7.3). Short-circuit current was recorded continuously using a DVC-1000 voltage clamp (World Precision Instruments, Sarasota Fla.) with Ag/AgCl electrodes and 1 M KCl agar bridges.
In some experiments, MDCK cells in Snapwell inserts were cultured in medium containing 10 μM T08 or G07 for 1 or 48 hours. Compounds were washed out with medium for 1 hour before short-circuit current measurements.

Series [4] concerns embryonic kidneys. Put plainly: Embryonic kidney organ culture model (8-Br-cAMP-induced cysts). It counts as cell-based, mouse. The conditions noted are these: for kidney length after 4 days in culture: absence of 8-Br-cAMP; for cyst formation in embryonic kidneys (in words): 100 μM 8-Br-cAMP, 4 days. An excerpt: An embryonic kidney organ culture model was used to further evaluate compounds T08 and G07. Embryonic kidney culture models permit organotypic growth and differentiation of renal tissue in defined media without the confounding effects of circulating hormones and glomerular filtration (see, e.g., Magenheimer et al., J Am Soc Nephrol 17: 3424-37, 2006; and Gupta et al., Kidney Int 63: 365-376, 2003). In addition, the early mouse kidney tubule in this model has an intrinsic capacity to secrete fluid in response to cAMP by a CFTR-dependent mechanism (Magenheimer et al.), allowing the evaluation of CFTR inhibitors in particular.
Mouse embryos were obtained at embryonic day 13.5 (E13.5). Metanephroi were dissected and placed on transparent Falcon […] porous cell culture inserts. To the culture inserts was added DMEM/Ham's F-12 nutrient medium supplemented with 2 mM L-glutamine, 10 mM HEPES, 5 μg/ml insulin, 5 μg/ml transferrin, 2.8 nM selenium, 25 ng/ml prostaglandin E, 32 pg/ml T3, 250 U/ml penicillin and 250 μg/ml streptomycin. Kidneys were maintained in a 37° C. humidified CO2 incubator, and were cultured for 4 days in the absence or presence of 100 μM 8-Br-cAMP. Culture medium containing 100 μM 8-Br-cAMP, with or without CFTR inhibitors, was replaced (in the lower chamber) every 12 hours.
Kidneys were photographed using a Nikon inverted microscope (Nikon TE 2000-S) equipped with 2× objective lens, 520 nm bandpass filter, and high-resolution PixeLINK color CCD camera. […] Cyst sizes in micrographs of metanephroi were determined using MATLAB 7.0 software. A masking procedure was used to highlight all pixels of similar intensity within each cyst. Fractional cyst area was calculated as total cyst area divided by total kidney area. Cysts with diameters >50 μm were included in the analysis. Image acquisition and analysis was done without knowledge of treatment condition.

Setting [5] is: values in text, forskolin-stimulated CFTR, read-out: IC50 (short-circuit current).

The text below walks through data of patent US20110105565A1, “WATER SOLUBLE SMALL MOLECULE INHIBITORS OF THE CYSTIC FIBROSIS TRANSMEMBRANE CONDUCTANCE REGULATOR” (THE REGENTS OF THE UNIVERSITY OF CALIFORNIA, priority 2008, published 2011).

“Also recorded” adds a separate entry of the source. Like-named read-outs stand apart in the source and are kept apart here.

Chain of human wildtype CFTR (P13569 whole entry): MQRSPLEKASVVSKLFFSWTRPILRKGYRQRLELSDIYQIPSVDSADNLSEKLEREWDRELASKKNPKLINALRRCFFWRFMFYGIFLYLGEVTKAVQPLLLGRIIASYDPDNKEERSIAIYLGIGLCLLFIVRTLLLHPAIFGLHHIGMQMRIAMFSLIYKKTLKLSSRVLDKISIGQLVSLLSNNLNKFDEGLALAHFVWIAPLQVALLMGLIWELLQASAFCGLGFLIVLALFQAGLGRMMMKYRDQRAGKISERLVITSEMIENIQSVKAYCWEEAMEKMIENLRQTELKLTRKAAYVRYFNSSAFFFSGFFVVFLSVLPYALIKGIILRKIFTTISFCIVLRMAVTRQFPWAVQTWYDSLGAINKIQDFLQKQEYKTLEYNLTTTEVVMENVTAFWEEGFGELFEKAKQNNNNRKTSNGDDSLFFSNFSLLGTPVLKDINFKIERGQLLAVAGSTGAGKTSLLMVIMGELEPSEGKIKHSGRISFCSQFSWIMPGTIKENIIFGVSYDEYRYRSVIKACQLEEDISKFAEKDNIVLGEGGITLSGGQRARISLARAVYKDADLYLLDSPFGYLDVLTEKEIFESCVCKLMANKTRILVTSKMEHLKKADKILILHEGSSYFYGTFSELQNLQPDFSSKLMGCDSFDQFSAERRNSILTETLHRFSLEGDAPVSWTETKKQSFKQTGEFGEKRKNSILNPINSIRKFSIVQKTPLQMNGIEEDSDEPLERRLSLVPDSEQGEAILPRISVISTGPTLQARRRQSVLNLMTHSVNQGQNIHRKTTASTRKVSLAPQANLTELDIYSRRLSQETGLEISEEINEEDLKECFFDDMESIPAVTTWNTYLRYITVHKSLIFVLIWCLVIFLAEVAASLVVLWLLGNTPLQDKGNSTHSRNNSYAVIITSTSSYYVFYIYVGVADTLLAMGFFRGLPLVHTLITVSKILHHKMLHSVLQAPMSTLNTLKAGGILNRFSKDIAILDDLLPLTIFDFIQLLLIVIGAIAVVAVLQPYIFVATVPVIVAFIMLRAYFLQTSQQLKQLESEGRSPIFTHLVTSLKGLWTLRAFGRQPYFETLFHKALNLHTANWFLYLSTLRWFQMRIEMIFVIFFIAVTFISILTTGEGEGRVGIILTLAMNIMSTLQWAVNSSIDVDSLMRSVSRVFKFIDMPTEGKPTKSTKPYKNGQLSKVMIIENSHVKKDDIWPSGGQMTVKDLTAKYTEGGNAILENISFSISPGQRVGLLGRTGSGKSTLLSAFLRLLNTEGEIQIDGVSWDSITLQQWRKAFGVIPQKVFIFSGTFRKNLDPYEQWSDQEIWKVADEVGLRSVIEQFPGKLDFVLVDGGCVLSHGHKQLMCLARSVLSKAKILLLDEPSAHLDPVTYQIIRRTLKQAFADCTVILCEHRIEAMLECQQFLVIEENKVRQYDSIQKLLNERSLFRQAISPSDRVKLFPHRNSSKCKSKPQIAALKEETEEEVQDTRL

In series [1] (C57BL/6, mouse, urine, sc), `O=C1/C(=C/c2ccc(-c3nn[nH]n3)cc2)SC(=S)N1c1cccc(C(F)(F)F)c1` [Compound 6, (Z)-5-(4-(1H-tetrazol-5-yl)benzylidene)-2-thioxo-3-(3-(trifluoromethyl)phenyl)thiazolidin-4-one] displayed a concentration at 1 h of 3.3 µM and a concentration at 5 h of 3.6 µM. Also, in series [2] (setting [5]), the IC50 lay within 500 to 1000 nM. Moreover, in series [3], the IC50 was approximately 1000 nM. Moreover, the “kidney length after 4 days in culture” value in series [4] is recorded as 7.4±0.5 mm.

As for `O=C1/C(=C/c2ccc(-c3nnn[nH]3)cc2)SC(=S)N1c1cccc(C(F)(F)F)c1` [Compound 6, (Z)-5-(4-(1H-tetrazol-5-yl)benzylidene)-2-thioxo-3-(3-(trifluoromethyl)phenyl)thiazolidin-4-one], the IC50 stood at 760 ± 200 nM in series [2] (Table 3, inhibition potency, read-out: IC50) and 800 nM in series [2] (setting [5]). Further, the “inhibition kinetics (in words)” value in series [2] (compared with CFTRinh-172 or Oxo-172, listed as Tetrazolo-172) is “slower inhibition kinetics”. The “inhibition of CFTR in short-circuit current analysis (in words)” value in series [2] (increasing concentration, forskolin-stimulated) was “dose dependant inhibition”. In addition, the “CFTR expression, short-circuit current after incubation (in words)” value in series [3] was “did not alter CFTR expression”. Moreover, the “cyst formation in embryonic kidneys (in words)” value in series [4] (listed as T08) was “remarkably reduced cyst formation; also recorded: reduced the number and size of cysts”.

In series [1], “N-2-naphthalenyl-2-hydroxyethyl-[(3,5-dibromo-2,4-dihydroxyphenyl)methylene]phenylglycinehydrazide [Compound G07]” yielded a concentration at 1 h of 4.3 µM and a concentration at 5 h of 5.8 µM. Moreover, in series [3], the “CFTR expression, short-circuit current after incubation (in words)” value is on record as “did not alter CFTR expression” and the half-inhibitory concentration (IC50) is approximately 1000 nM. In addition, in series [4], the “cyst formation in embryonic kidneys (in words)” value was “remarkably reduced cyst formation; also recorded: reduced the number and size of cysts”; the “kidney length after 4 days in culture” value was found to be 7.1±0.4 mm.
